Experimental data taken from ChEMBL document CHEMBL6109134, “Discovery of AMG 193, an MTA-Cooperative PRMT5 Inhibitor for the Treatment of MTAP-Deleted Cancers” (J Med Chem, 2025).
pIC50, pKi: −log10 of the molar value.

Assays:
HCT-116 [1] = experiment: Antiproliferative activity against MTAP-deleted human HCT-116 cells assessed as effect on cell viability incubated for 6 days by Celltiter-Glo luminescent cell viability assay; format: functional, cell-based; conditions: HCT-116, 144 h
HCT-116 [2] = experiment: Antiproliferative activity against human HCT-116 cells harboring wildtype MTAP assessed as effect on cell viability incubated for 6 days by Celltiter-Glo luminescent cell viability assay; format: functional, cell-based; conditions: HCT-116, 144 h
human MDR1 (P-gp) = experiment: Efflux ratio of permeability across basolateral to apical side over apical to basolateral side in MDCK cells transfected with human MDR1 in absence of elacridar; conditions: dog
[3] = Metabolic stability in human liver microsomes assessed as intrinsic clearance at 0.5 uM incubated for 40 mins in presence of NADPH; format: ADME, Microsome; conditions: read-out: CLH
[4] = Metabolic stability in mouse liver microsomes assessed as intrinsic clearance at 0.5 uM incubated for 40 mins in presence of NADPH; format: ADME, Microsome; conditions: read-out: CLH
[5] = target: T1, Nuclear receptor subfamily 1 group I member 2 (Homo sapiens, UniProt O75469); experiment: Activation of human PXR in human HepG2 cells co-transfected with CYP3A4-luciferase at 10 uM incubated for 1 day relative to control; conditions: hepg2, 24 h
T1 sequence (O75469 whole entry): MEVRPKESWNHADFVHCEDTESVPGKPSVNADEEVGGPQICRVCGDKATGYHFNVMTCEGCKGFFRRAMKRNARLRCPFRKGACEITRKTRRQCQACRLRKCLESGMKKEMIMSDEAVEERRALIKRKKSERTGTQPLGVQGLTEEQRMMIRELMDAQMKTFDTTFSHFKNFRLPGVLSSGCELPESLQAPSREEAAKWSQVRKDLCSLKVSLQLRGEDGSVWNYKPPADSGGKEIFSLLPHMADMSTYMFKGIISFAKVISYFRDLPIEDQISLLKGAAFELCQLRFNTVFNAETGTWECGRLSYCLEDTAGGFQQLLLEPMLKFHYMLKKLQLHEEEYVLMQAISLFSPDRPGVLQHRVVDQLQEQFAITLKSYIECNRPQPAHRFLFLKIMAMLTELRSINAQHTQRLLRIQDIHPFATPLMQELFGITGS

PRMT5/MEP50 complex = PRMT5/MEP50 complex (Homo sapiens, UniProt O14744)
PRMT5/MEP50 complex, sequence (O14744 whole entry): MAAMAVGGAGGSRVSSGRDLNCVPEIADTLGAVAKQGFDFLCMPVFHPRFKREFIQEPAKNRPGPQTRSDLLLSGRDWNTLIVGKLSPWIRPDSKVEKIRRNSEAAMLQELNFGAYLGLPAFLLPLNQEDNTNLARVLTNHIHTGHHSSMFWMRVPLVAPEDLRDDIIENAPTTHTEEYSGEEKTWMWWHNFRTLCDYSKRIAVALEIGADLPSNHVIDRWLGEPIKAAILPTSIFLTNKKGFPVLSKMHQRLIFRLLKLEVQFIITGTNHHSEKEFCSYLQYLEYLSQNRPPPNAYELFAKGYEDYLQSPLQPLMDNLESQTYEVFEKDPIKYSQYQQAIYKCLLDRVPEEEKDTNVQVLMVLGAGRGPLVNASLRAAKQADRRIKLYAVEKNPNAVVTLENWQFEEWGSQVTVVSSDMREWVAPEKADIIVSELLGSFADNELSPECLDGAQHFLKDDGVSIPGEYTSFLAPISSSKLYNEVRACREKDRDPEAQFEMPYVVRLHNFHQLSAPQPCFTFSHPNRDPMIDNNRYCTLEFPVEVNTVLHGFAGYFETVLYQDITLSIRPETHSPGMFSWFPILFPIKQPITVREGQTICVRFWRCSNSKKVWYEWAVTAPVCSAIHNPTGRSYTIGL
PRMT5/MEP50 complex, sequence (Q9BQA1 whole entry, further chain): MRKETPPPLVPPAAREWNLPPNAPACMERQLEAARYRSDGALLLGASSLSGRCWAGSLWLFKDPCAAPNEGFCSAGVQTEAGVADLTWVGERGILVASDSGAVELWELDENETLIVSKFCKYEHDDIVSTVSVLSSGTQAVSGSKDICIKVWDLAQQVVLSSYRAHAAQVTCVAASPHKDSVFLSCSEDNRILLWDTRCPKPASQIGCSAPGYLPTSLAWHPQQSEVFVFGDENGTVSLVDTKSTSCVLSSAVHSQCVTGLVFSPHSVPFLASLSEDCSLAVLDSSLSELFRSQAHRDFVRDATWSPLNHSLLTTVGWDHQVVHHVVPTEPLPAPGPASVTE
Description: Inhibition of PRMT5/MEP50 (unknown origin) preincubated with compound for 24 hrs in presence of SAM and MTA followed by Histone H4 (1-21)-Lys(Biotin) peptide addition and measured after 2 hrs by MTase-Glo reagent based assay

CYP3A4 = CYP3A4 (Homo sapiens, UniProt P08684); experiment: in vitro; conditions: human liver microsomes, probe midazolam
CYP3A4, sequence (P08684 whole entry): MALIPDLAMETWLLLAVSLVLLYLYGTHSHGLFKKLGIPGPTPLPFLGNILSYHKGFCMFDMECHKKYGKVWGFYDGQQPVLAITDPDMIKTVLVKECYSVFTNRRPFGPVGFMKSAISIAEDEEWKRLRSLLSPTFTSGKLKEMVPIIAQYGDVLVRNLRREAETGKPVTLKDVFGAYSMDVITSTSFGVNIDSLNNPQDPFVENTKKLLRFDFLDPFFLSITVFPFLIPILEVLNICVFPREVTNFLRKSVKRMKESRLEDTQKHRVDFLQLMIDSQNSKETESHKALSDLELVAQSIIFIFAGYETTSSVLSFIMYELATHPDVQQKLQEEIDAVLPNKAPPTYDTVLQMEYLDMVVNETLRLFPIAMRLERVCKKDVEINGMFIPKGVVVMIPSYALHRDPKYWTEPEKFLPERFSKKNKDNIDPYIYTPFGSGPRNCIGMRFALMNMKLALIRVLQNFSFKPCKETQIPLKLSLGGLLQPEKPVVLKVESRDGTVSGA

[6] = Clearance in CD-1 mouse at 1 mg/kg, iv; conditions: in vivo
[7] = Half-life in CD-1 mouse at 1 mg/kg, iv; format: ADME, organism-based; conditions: in vivo
[8] = Oral bioavailability in CD-1 mouse at 5 mg/kg administered as 1% Tween 80, 2% HPMC, 97% water/methane sulfonic acid, pH 2.0 formulation; format: ADME, organism-based; conditions: in vivo
[9] = Protein binding in mouse plasma assessed as unbound fraction by ultracentrifugation; conditions: mouse plasma
[10] = Unbound clearance in CD-1 mouse at 1 mg/kg, iv; format: ADME, organism-based; conditions: in vivo
in vivo = conditions: CD-1, mouse, iv, 1 mg/kg

SMILES: C[C@H](c1ncccn1)N(Cc1ccc(C(F)(F)F)cn1)C(=O)c1cc2c3c(c(N)nc2cn1)COC3
- pIC50 (HCT-116 [1]): 6.69
- pIC50 (HCT-116 [2]): 5.73
- efflux ratio (human MDR1 (P-gp)): 61
- microsomal CLint at 0.5 µM [3]: 67 µL/min/mg
- microsomal CLint at 0.5 µM [4]: 154 µL/min/mg
- Activity [5]: 9%
- pKi (PRMT5/MEP50 complex): 10.00
- inhibition at 30 min, 10 µM (CYP3A4): 4%

SMILES: Cc1cc2cc(C(=O)N(Cc3ccc(C(F)(F)F)cn3)CC(C)C)ccc2nc1N
- pIC50 (HCT-116 [1]): 6.37
- pIC50 (HCT-116 [2]): 5.22
- microsomal CLint at 0.5 µM [3]: 32 µL/min/mg
- microsomal CLint at 0.5 µM [4]: 148 µL/min/mg
- Activity [5]: 22%
- inhibition at 30 min, 10 µM (CYP3A4): 52%

SMILES: Nc1nc2cnc(C(=O)N3CCCC[C@@H]3c3ccc(C(F)(F)F)cc3)cc2c2c1COC2
- pIC50 (HCT-116 [1]): 6.95
- pIC50 (HCT-116 [2]): 5.68
- efflux ratio (human MDR1 (P-gp)): 4
- microsomal CLint at 0.5 µM [3]: 74 µL/min/mg
- microsomal CLint at 0.5 µM [4]: 102 µL/min/mg
- Activity [5]: < 20%
- pKi (PRMT5/MEP50 complex): > 10.00
- inhibition at 30 min, 10 µM (CYP3A4): < 20%

SMILES: CCN(Cc1ccc(C(F)(F)F)cn1)C(=O)c1ccc2nc(N)c3c(c2c1)COC3
- pIC50 (HCT-116 [1]): 7.00
- pIC50 (HCT-116 [2]): 5.49
- efflux ratio (human MDR1 (P-gp)): 10
- microsomal CLint at 0.5 µM [3]: 30 µL/min/mg
- microsomal CLint at 0.5 µM [4]: 45 µL/min/mg
- Activity [5]: < 20%
- clearance [6]: 0.7 L/h/kg
- half-life [7]: 2 h
- bioavailability [8]: 95%
- fraction unbound [9]: 0.12
- CL free [10]: 5.8 L/h/kg
- pKi (PRMT5/MEP50 complex): > 10.00
- Vd (in vivo): 1.5 L/kg
- inhibition at 30 min, 10 µM (CYP3A4): < 20%

SMILES: Nc1nc2ccc(C(=O)N3CCOCC3c3ccc(C(F)(F)F)cn3)cc2c2c1COC2 (racemic)
- pIC50 (HCT-116 [1]): 6.09
- pIC50 (HCT-116 [2]): 4.84
- microsomal CLint at 0.5 µM [3]: 37 µL/min/mg
- microsomal CLint at 0.5 µM [4]: 45 µL/min/mg
- Activity [5]: < 20%
- pKi (PRMT5/MEP50 complex): 10.00
- inhibition at 30 min, 10 µM (CYP3A4): < 20%

SMILES: C[C@H](c1ncccn1)N(Cc1ccc(C(F)(F)F)cn1)C(=O)c1ccc2nc(N)ccc2c1
- pIC50 (HCT-116 [1]): 6.32
- pIC50 (HCT-116 [2]): 6.13
- efflux ratio (human MDR1 (P-gp)): 15
- microsomal CLint at 0.5 µM [3]: < 14 µL/min/mg
- microsomal CLint at 0.5 µM [4]: 62 µL/min/mg
- Activity [5]: 17%
- pKi (PRMT5/MEP50 complex): 9.22
- inhibition at 30 min, 10 µM (CYP3A4): 21%

SMILES: C[C@H](c1ncccn1)N(Cc1ccc(C(F)(F)F)cn1)C(=O)c1ccc2nc(N)c3c(c2c1)CCC3
- pIC50 (HCT-116 [1]): 7.85
- pIC50 (HCT-116 [2]): 6.89
- efflux ratio (human MDR1 (P-gp)): 85
- microsomal CLint at 0.5 µM [3]: 274 µL/min/mg
- microsomal CLint at 0.5 µM [4]: 563 µL/min/mg
- Activity [5]: 73%
- pKi (PRMT5/MEP50 complex): > 10.00
- inhibition at 30 min, 10 µM (CYP3A4): 8%

SMILES: C[C@H](c1ncccn1)N(Cc1ccc(C(F)(F)F)cn1)C(=O)c1cc2c3c(c(N)nc2cc1F)COC3
- pIC50 (HCT-116 [1]): 8.00
- pIC50 (HCT-116 [2]): 7.59
- efflux ratio (human MDR1 (P-gp)): 31
- microsomal CLint at 0.5 µM [3]: 262 µL/min/mg
- microsomal CLint at 0.5 µM [4]: 624 µL/min/mg
- Activity [5]: 50%
- pKi (PRMT5/MEP50 complex): > 10.00
- inhibition at 30 min, 10 µM (CYP3A4): ≤ 10%

SMILES: CC(=O)N1CCC(Nc2cc(C(=O)NC[C@H](O)CN3CCc4ccccc4C3)ncn2)CC1 [PEMRAMETOSTAT]
- pIC50 (HCT-116 [1]): 7.13
- pIC50 (HCT-116 [2]): 7.17

SMILES: Nc1nc2ncc(C(=O)N3CCOCC3c3ccc(C(F)(F)F)cc3)cc2c2c1COC2 (stereo unspecified)
- pIC50 (HCT-116 [1]): 5.35
- pIC50 (HCT-116 [2]): < 5.00
- efflux ratio (human MDR1 (P-gp)): 69
- microsomal CLint at 0.5 µM [3]: 17 µL/min/mg
- microsomal CLint at 0.5 µM [4]: 26 µL/min/mg
- Activity [5]: < 20%
- pKi (PRMT5/MEP50 complex): 7.98
- inhibition at 30 min, 10 µM (CYP3A4): < 20%

SMILES: C[C@H](c1ncccn1)N(Cc1ccc(C(F)(F)F)cn1)C(=O)c1ccc2nc(N)c(Cl)cc2c1
- pIC50 (HCT-116 [1]): 6.46
- pIC50 (HCT-116 [2]): 5.29
- efflux ratio (human MDR1 (P-gp)): 9
- microsomal CLint at 0.5 µM [3]: < 14 µL/min/mg
- microsomal CLint at 0.5 µM [4]: 105 µL/min/mg
- Activity [5]: 46%
- pKi (PRMT5/MEP50 complex): 9.70
- inhibition at 30 min, 10 µM (CYP3A4): 25%

SMILES: Cc1cc2cc(C(=O)N(Cc3ccc(C(F)(F)F)cn3)[C@H](C)c3ncccn3)cnc2nc1N
- pIC50 (HCT-116 [1]): 6.56
- pIC50 (HCT-116 [2]): 5.46
- efflux ratio (human MDR1 (P-gp)): 63
- microsomal CLint at 0.5 µM [3]: 14 µL/min/mg
- microsomal CLint at 0.5 µM [4]: 14 µL/min/mg
- Activity [5]: 6%
- pKi (PRMT5/MEP50 complex): 10.00
- inhibition at 30 min, 10 µM (CYP3A4): 70%

SMILES: Cc1cc2cc(C(=O)N(Cc3ccc(C(F)(F)F)cn3)[C@H](C)c3ncccn3)ncc2nc1N
- pIC50 (HCT-116 [1]): 6.39
- pIC50 (HCT-116 [2]): 5.10
- efflux ratio (human MDR1 (P-gp)): 29
- microsomal CLint at 0.5 µM [3]: 14 µL/min/mg
- microsomal CLint at 0.5 µM [4]: 46 µL/min/mg
- Activity [5]: 11%
- pKi (PRMT5/MEP50 complex): 10.00
- inhibition at 30 min, 10 µM (CYP3A4): 31%

SMILES: Nc1nc2cnc(C(=O)N3CCC(F)(F)C[C@@H]3c3ccc(C(F)(F)F)cc3)cc2c2c1COC2
- pIC50 (HCT-116 [1]): 5.96
- pIC50 (HCT-116 [2]): 4.79
- efflux ratio (human MDR1 (P-gp)): 5
- microsomal CLint at 0.5 µM [3]: 50 µL/min/mg
- microsomal CLint at 0.5 µM [4]: 87 µL/min/mg
- Activity [5]: < 20%
- pKi (PRMT5/MEP50 complex): 9.40
- inhibition at 30 min, 10 µM (CYP3A4): < 20%

SMILES: Nc1nc2ccc(C(=O)N3CCOC[C@@H]3c3ccc(Cl)cc3)cc2c2c1COC2
- pIC50 (HCT-116 [1]): 6.40
- pIC50 (HCT-116 [2]): 5.08
- efflux ratio (human MDR1 (P-gp)): 8
- microsomal CLint at 0.5 µM [3]: 42 µL/min/mg
- microsomal CLint at 0.5 µM [4]: 121 µL/min/mg
- Activity [5]: < 20%
- pKi (PRMT5/MEP50 complex): > 10.00
- inhibition at 30 min, 10 µM (CYP3A4): < 20%

SMILES: Nc1nc2ccc(C(=O)N3CCOC[C@H]3c3ccc(C(F)(F)F)cn3)cc2c2c1COC2
- pIC50 (HCT-116 [1]): 4.81
- pIC50 (HCT-116 [2]): < 4.30
- microsomal CLint at 0.5 µM [3]: 61 µL/min/mg
- microsomal CLint at 0.5 µM [4]: 52 µL/min/mg
- Activity [5]: < 20%
- pKi (PRMT5/MEP50 complex): 6.74
- inhibition at 30 min, 10 µM (CYP3A4): < 20%

SMILES: Nc1nc2ccc(C(=O)N3CCCC3c3ccc(C(F)(F)F)cn3)cc2c2c1COC2 (stereo unspecified)
- pIC50 (HCT-116 [1]): < 4.30
- pIC50 (HCT-116 [2]): < 4.30
- microsomal CLint at 0.5 µM [3]: 57 µL/min/mg
- microsomal CLint at 0.5 µM [4]: 72 µL/min/mg
- Activity [5]: < 20%
- pKi (PRMT5/MEP50 complex): 6.74
- inhibition at 30 min, 10 µM (CYP3A4): < 20%

SMILES: C[C@@H]1OCc2c1c(N)nc1cnc(C(=O)N3CCOC[C@@H]3c3ccc(C(F)(F)F)cc3)cc21
- pIC50 (HCT-116 [1]): 5.34
- pIC50 (HCT-116 [2]): < 4.30
- efflux ratio (human MDR1 (P-gp)): 7
- microsomal CLint at 0.5 µM [3]: 49 µL/min/mg
- microsomal CLint at 0.5 µM [4]: 64 µL/min/mg
- Activity [5]: < 20%
- pKi (PRMT5/MEP50 complex): 8.96
- inhibition at 30 min, 10 µM (CYP3A4): < 20%

SMILES: C[C@H](c1ncccn1)N(Cc1ccc(C(F)(F)F)cn1)C(=O)c1cnc2nc(N)c3c(c2c1)COC3
- pIC50 (HCT-116 [1]): 7.08
- pIC50 (HCT-116 [2]): 6.39
- microsomal CLint at 0.5 µM [3]: 22 µL/min/mg
- microsomal CLint at 0.5 µM [4]: 17 µL/min/mg
- Activity [5]: 1%
- pKi (PRMT5/MEP50 complex): > 10.00
- inhibition at 30 min, 10 µM (CYP3A4): < 1%
